In article PMC10581193 (Microbiology Spectrum, 2023):
Converted amounts (≈) assume the structure as drawn.

System: M. tuberculosis H37Ra
Test: microbe, parasite or virus in culture
Type: cell-based, Mycobacterium tuberculosis
Conditions: for MIC: Mycobacterium tuberculosis, H37RA, read-out: MIC against H37Ra

6-bromo-N-(2,2-difluoroethyl)-4-((2-methoxy-5-(trifluoromethyl)pyridin-3-yl)methyl)-3,4-dihydro-2H-benzo[b][1,4]oxazine-8-carboxamide [B5]
MIC against H37Ra: > 25 µg/mL

6-bromo-N-(2-fluoroethyl)-4-((2-methoxy-5-(trifluoromethyl)pyridin-3-yl)methyl)-3,4-dihydro-2H-benzo[2, 4]oxazine-8-carboxamide [B3]
MIC against H37Ra: 1.56 µg/mL

6-bromo-N-(2-fluoroethyl)−4-((3,5,6-trimethylpyrazin-2-yl)methyl)−3,4-dihydro-2H-benzo[2, 4]oxazine-8-carboxamide [B1]
MIC against H37Ra: 6.25 µg/mL

6-bromo-N-(2-hydroxyethyl)-4-((2-methoxy-5-(trifluoromethyl)pyridin-3-yl)methyl)-3,4-dihydro-2H-benzo[2, 4]oxazine-8-carboxamide [B4]
MIC against H37Ra: 25 µg/mL

COc1ccc(F)c(F)c1Cn1ccc2c(C(=O)NCCF)cc(Br)cc21 [A1]
MIC: > 6.25 µg/mL

COc1ccc(F)c(F)c1Cn1ccc2c(C(=O)NCC(F)F)cc(Br)cc21 [A2, 6-bromo-1-(2,3-difluoro-6-methoxybenzyl)-N-(2,2-difluoroethyl)-1H-indole-4-carboxamide]
MIC: > 6.25 µg/mL

Cc1nc(C)c(Cn2ccc3c(C(=O)NCC(F)F)cc(Br)cc32)nc1C [A3, 6-bromo-N-(2,2-difluoroethyl)-1-((3,5,6-trimethylpyrazin-2-yl)methyl)-1H-indole-4-carboxamide]
MIC: > 6.25 µg/mL

COc1ncnc(Cn2ccc3c(C(=O)NCC(F)F)cc(Br)cc32)c1C [A4, 6-bromo-N-(2,2-difluoroethyl)-1-((6-methoxy-5-methylpyrimidin-4-yl)methyl)-1H-indole-4-carboxamide]
MIC against H37Ra: 0.5
MIC: 0.5 µg/mL (≈ 1.14 µM)

COc1ncc(C(F)(F)F)cc1Cn1ccc2c(C(=O)NCC(F)F)cc(Br)cc21 [A5, 6-bromo-N-(2,2-difluoroethyl)-1-((2-methoxy-5-(trifluoromethyl)pyridin-3-yl)methyl)-1H-indole-4-carboxamide]
MIC: > 6.25 µg/mL

COc1ccc(F)c(F)c1Cn1ccc2c(C(=O)NCCF)cc(C)cc21 [A6]
MIC: > 6.25 µg/mL

COc1ccc(F)c(F)c1Cn1ccc2c(C(=O)NCC(F)F)cc(C)cc21 [A7, 1-(2,3-difluoro-6-methoxybenzyl)-N-(2,2-difluoroethyl)-6-methyl-1H-indole-4-carboxamide]
MIC: > 6.25 µg/mL

Cc1cc(C(=O)NCC(F)F)c2ccn(Cc3nc(C)c(C)nc3C)c2c1 [A8, N-(2,2-difluoroethyl)-6-methyl-1-((3,5,6-trimethylpyrazin-2-yl)methyl)-1H-indole-4-carboxamide]
MIC: > 6.25 µg/mL

COc1ncnc(Cn2ccc3c(C(=O)NCC(F)F)cc(C)cc32)c1C [A9, N-(2,2-difluoroethyl)-1-((6-methoxy-5-methylpyrimidin-4-yl)methyl)-6-methyl-1H-indole-4-carboxamide]
MIC: 0.18 µg/mL (≈ 0.481 µM)

COc1ncc(C(F)(F)F)cc1Cn1ccc2c(C(=O)NCC(F)F)cc(C)cc21 [A10, N-(2,2-difluoroethyl)-1-((2-methoxy-5-(trifluoromethyl)pyridin-3-yl)methyl)-6-methyl-1H-indole-4-carboxamide]
MIC: > 6.25 µg/mL

Cc1nc(C)c(CN2CCOc3c(C(=O)NCC(F)F)cc(Br)cc32)nc1C [B2]
MIC against H37Ra: 0.39
MIC: 0.39 µg/mL (≈ 0.857 µM)

COc1ccc(F)c(F)c1CN1CCOc2c(C(=O)NCCF)cc(Br)cc21 [B6, 6-bromo-4-(2,3-difluoro-6-methoxybenzyl)-N-(2-fluoroethyl)-3,4-dihydro-2H-benzo[b][1,4]oxazine-8-carboxamide]
MIC: > 100 µg/mL

COc1ccc(F)c(F)c1CN1CCOc2c(C(=O)NCC(F)F)cc(Br)cc21 [B7, 6-bromo-4-(2,3-difluoro-6-methoxybenzyl)-N-(2,2-difluoroethyl)-3,4-dihydro-2H-benzo[b][1,4]oxazine-8-carboxamide]
MIC: > 100 µg/mL

COc1ccc(F)c(F)c1CN1CCOc2c(C(=O)NCCO)cc(Br)cc21 [B8, 6-bromo-4-(2,3-difluoro-6-methoxybenzyl)-N-(2-hydroxyethyl)-3,4-dihydro-2H-benzo[b][1,4]oxazine-8-carboxamide]
MIC: > 100 µg/mL

COc1c(CN2CCOc3c(C(=O)NCC(F)F)cc(Br)cc32)ccc(F)c1F [B9, 6-bromo-4-(3,4-difluoro-2-methoxybenzyl)-N-(2,2-difluoroethyl)-3,4-dihydro-2H-benzo[b][1,4]oxazine-8-carboxamide]
MIC: > 100 µg/mL

COc1c(CN2CCOc3c(C(=O)NCCO)cc(Br)cc32)ccc(F)c1F [B10, 6-bromo-4-(3,4-difluoro-2-methoxybenzyl)-N-(2-hydroxyethyl)-3,4-dihydro-2H-benzo[b][1,4]oxazine-8-carboxamide]
MIC: > 100 µg/mL

Cc1cc(C(=O)NCC(F)F)c2c(c1)N(Cc1nc(C)c(C)nc1C)CCO2 [B11, N-(2,2-difluoroethyl)-6-methyl-4-((3,5,6-trimethylpyrazin-2-yl)methyl)-3,4-dihydro-2H-benzo[b][1,4]oxazine-8-carboxamide]
MIC: 0.18 µg/mL (≈ 0.461 µM)

Cc1cc(C(=O)NCC(F)(F)F)c2c(c1)N(Cc1nc(C)c(C)nc1C)CCO2 [B12, 6-methyl-N-(2,2,2-trifluoroethyl)-4-((3,5,6-trimethylpyrazin-2-yl)methyl)-3,4-dihydro-2H-benzo[b][1,4]oxazine-8-carboxamide]
MIC against H37Ra: ≥ 100
MIC: 100 µg/mL (≈ 245 µM)

Cc1cc(C(=O)NCCO)c2c(c1)N(Cc1nc(C)c(C)nc1C)CCO2 [B13, N-(2-hydroxyethyl)-6-methyl-4-((3,5,6-trimethylpyrazin-2-yl)methyl)-3,4-dihydro-2H-benzo[b][1,4]oxazine-8-carboxamide]
MIC against H37Ra: ≥ 100
MIC: > 100 µg/mL

Cc1cc(C(=O)NC2CC2)c2c(c1)N(Cc1nc(C)c(C)nc1C)CCO2 [B14, N-cyclopropyl-6-methyl-4-((3,5,6-trimethylpyrazin-2-yl)methyl)-3,4-dihydro-2H-benzo[b][1,4]oxazine-8-carboxamide]
MIC: 50 µg/mL (≈ 136 µM)

Cc1cc(C(=O)NC2CCCC2)c2c(c1)N(Cc1nc(C)c(C)nc1C)CCO2 [B15, N-cyclopentyl-6-methyl-4-((3,5,6-trimethylpyrazin-2-yl)methyl)-3,4-dihydro-2H-benzo[b][1,4]oxazine-8-carboxamide]
MIC: 1.56 µg/mL (≈ 3.95 µM)

Cc1cc(C(=O)NC2CCCCC2)c2c(c1)N(Cc1nc(C)c(C)nc1C)CCO2 [B16, N-cyclohexyl-6-methyl-4-((3,5,6-trimethylpyrazin-2-yl)methyl)-3,4-dihydro-2H-benzo[b][1,4]oxazine-8-carboxamide]
MIC: < 0.78 µg/mL

Cc1nc(C)c(CN2CCOc3c(C(=O)NCC(F)F)cc(C4CC4)cc32)nc1C [B17, 6-cyclopropyl-N-(2,2-difluoroethyl)-4-((3,5,6-trimethylpyrazin-2-yl)methyl)-3,4-dihydro-2H-benzo[b][1,4]oxazine-8-carboxamide]
MIC: 0.6 µg/mL (≈ 1.44 µM)

Cc1nc(C)c(CN2CCOc3c(C(=O)NCCO)cc(C4CC4)cc32)nc1C [B19, 6-cyclopropyl-N-(2-hydroxyethyl)-4-((3,5,6-trimethylpyrazin-2-yl)methyl)-3,4-dihydro-2H-benzo[b][1,4]oxazine-8-carboxamide]
MIC: > 100 µg/mL

O=C(NCC(F)(F)F)c1cc(C2CC2)cc2c1OCCN2Cc1ccc2ccccc2c1 [B20, 6-cyclopropyl-4-(naphthalen-2-ylmethyl)-N-(2,2,2-trifluoroethyl)-3,4-dihydro-2H-benzo[b][1,4]oxazine-8-carboxamide]
MIC: > 25 µg/mL
